{"source": "patent US20260315436A1", "about": "“METHOD OF TREATING DISORDERS WITH SURF1 MALFUNCTION” (Cure Mito Foundation, priority 2023, published 2026)", "assay_type_in_all_cases": "cell-based, human", "key": {"[1]": {"test_system": "GM28012 SURF1 fibroblasts", "assay": "Seahorse mitochondrial stress test, fibroblast cell line GM28012 (Experiment 3, single compounds)", "details": "48 h; for increase in respiration compared with GM28010: GM28012 vs GM28010; for total ATP: highest concentration (10 uM)", "method": "(§1) In order to evaluate selected compounds' impact on mitochondrial function in patient-derived fibroblasts compared to controls, three seahorse assays were conducted, Exp. 1: Fibroblast cell line GM28010—single compounds; Exp. 2. Fibroblast cell line GM28010—combination of compounds+ Single compounds; and Exp. 3: Fibroblast cell line GM28012—single compounds. Seahorse XF24 Extracellular Flux Analyzers continuously measure oxygen concentration and proton flux in the cell supernatant over time (Wu et al., 2007). The oxygen concentration and proton flux measurements are converted in OCR and ECAR values. This enables a direct quantification of mitochondrial respiration and glycolysis. The aim of the seahorse assays is to evaluate the impact of selected compounds on mitochondrial function in patient-derived fibroblasts compared to controls. Compounds used in the seahorse assays include posacanazole, sertaconazole, glabridin, zinglibroside (ginsenoside Z R1), AM281, cysteamine bitrartate, PF-06447475, losmapimod, telepravir, miltefosine, incyclinide, poziotinib, and methylene blue.\n(§2) • Basal Oxygen Consumption (OCR): This reflects the cellular oxygen usage under basal conditions, encompassing both energy production (ATP turnover) and background oxygen leak from the mitochondria. • Oligomycin Injection: Oligomycin is a compound that inhibits ATP synthase, an enzyme crucial for ATP production within mitochondria. • Oligomycin-resistant Respiration: After oligomycin injection, minimal oxygen consumption persists, representing non-ATP linked oxygen leak from the mitochondria, often termed proton leak. • ATP-linked Respiration: This value is derived by subtracting the oligomycin-resistant respiration from the basal OCR. It signifies the oxygen consumption specifically linked to ATP production through mitochondrial oxidative phosphorylation. • Mitochondrial Bioenergetic Efficiency: This parameter reflects the percentage decrease in oxygen consumption observed after oligomycin injection, indicating the mitochondria's efficiency in utilizing oxygen for ATP generation. • FCCP Injection: FCCP is a chemical that disrupts the link between mitochondrial electron transport and ATP production. • Maximal Respiration: Following FCCP injection, the highest oxygen consumption rate is measured, representing the maximum capacity of the mitochondria to utilize oxygen for respiration. • Spare Respiratory Capacity: This parameter is calculated by subtracting basal respiration from maximal respiration.\nGM28010 primary human fibroblasts obtained from patients with SURF1 Leigh syndrome were purchased from the Coriell Cell Repositories (Camden, N.J.; repository number GM28010).\nGM00038 primary human fibroblasts purchased from the Coriell Cell Repositories (Camden, N.J., repository number GM00038) and were used as a healthy control.\nFibroblasts were grown in glucose according to recommendation. Cells were plated in XF96 plates in culture medium and plated at 10,000 cells/well. The day after plating, the cells were treated with the compounds. The treatments completed in glucose medium and galactose medium. The compounds were tested at for 48 hours. The compounds were incubated at (37 C, 5% CO2) until the day of the experiment. The fibroblasts were run at passage numbers: GM28012 SURF1 Fibroblasts P5.\nThe assay medium was 10 mM glucose or galactose DMEM supplemented with 2 mM glutamine and 1 mM pyruvate. Injection Ports for basal glucose: Port A: 2 μM oligomycin; Port B: 2.5 μM FCCP; Port C: 4 μM FCCP; and Port D: 2 μM rotenone and antimycin A.\nThe data were normalized to cell number per well after the run. The Hoechst-stained nuclei were counted with a Operetta High-Content Imager."}, "[2]": {"test_system": "GM28010 SURF1 mutant fibroblasts", "assay": "Seahorse mitochondrial stress test, fibroblast cell line GM28010 (Experiment 1, single compounds)", "details": "48 h; for increase in ATP-linked respiration / increase in maximal respiration: both glucose and galactose-cultured cells", "method": "as §1\nFibroblast cell line GM28010 is a primary human fibroblast cell line obtained from patients with SURF1 Leigh syndrome. It was purchased from the Coriell Cell Repositories (Camden, NJ, repository number GM28010). Cell line GM00038 was used as a healthy control for GM28010 and is a primary human fibroblast purchased from the Coriell Cell Repositories (Camden, NJ, repository number GM00038).\nFibroblasts were grown in glucose according to recommendation.\nCells were plated in XF96 plates in culture medium and were plated at 10,000 cells/well.\nThe day after plating, cells were treated with the compounds in Table 1. The treatments were completed in glucose medium and galactose medium. The compounds were tested at for 48 hours. The compounds were incubated at (37 C, 5% CO2) until the day of the experiment.\n*Fibroblasts were run at passage numbers: GM28010 SURF1 Fibroblasts P5; GM00038F controls P9.\n• Assay Medium: 10 mM glucose or galactose DMEM supplemented with 2 mM glutamine and 1 mM pyruvate. • Injection Ports for basal glucose: Port A: 2 μM oligomycin; Port B: 2.5 μM FCCP; Port C: 4 μM FCCP; and Port D: 2 μM rotenone and antimycin A.\nData were normalized to cell number per well after the run. The Hoechst-stained nuclei were counted with the Operetta High-Content Imager.\nas §2"}, "[3]": {"test_system": "GM28010 SURF1 mutant fibroblasts", "assay": "Seahorse mitochondrial stress test, fibroblast cell line GM28010 (Experiment 2, combinations and single compounds)", "details": "48 h, combinations at 1 μM losmapimod, single compounds 1, 5, 10 μM", "method": "as §1, §2\nGM28010 is a primary human fibroblast cell line that was obtained from patients with SURF1 Leigh syndrome. It was purchased from the Coriell Cell Repositories (Camden, N.J., repository number GM28010).\nGM00038 is a primary human fibroblast cell line purchased from the Coriell Cell Repositories (Camden, N.J.; repository number GM00038). GM00038 was used as a healthy control.\nFibroblasts were grown in glucose according to recommendation. Cells were plated in XF96 plates in culture medium and plated at 10,000 cells/well. The day after plating, cells were treated with compounds. Treatments completed in glucose medium Compounds were tested at for 48 hours. The compounds were incubated at (37 C, 5% CO2) until the day of the experiment.\nThe fibroblasts were run at passage numbers: GM28010 SURF1 Fibroblasts P5.\nThe Assay Medium was 10 mM glucose or galactose DMEM supplemented with 2 mM glutamine and 1 mM pyruvate. Injection Ports for basal glucose: Port A: 2 μM oligomycin; Port B: 2.5 μM FCCP; Port C: 4 μM FCCP; and Port D: 2 μM rotenone and antimycin A. The Data were normalized to cell number per well after the run. The Hoechst-stained nuclei were counted with a Operetta High-Content Imager."}, "[4]": {"details": "glucose and galactose conditions"}, "[5]": {"details": "10 μM Ginsenoside Z R1, 10 μM PF-06447475"}, "[6]": {"details": "glucose and galactose conditions, listed as miltefosine"}, "[7]": {"details": "glucose and galactose conditions, listed as Posacanazole"}, "[8]": {"details": "glucose-cultured cells, listed as Telepravir"}}, "note": "“Also recorded” adds a separate entry of the source.", "data": [{"smiles": "Cc1c(F)cc(C(=O)NC2CC2)cc1-c1ccc(C(=O)NCC(C)(C)C)cn1", "note": "[Losmapimod, losmapimod]", "values": [{"measurement": "ATP production through OXPHOS", "setting": "[1]", "result": "Increased ATP-linked respiration and ATP production through OXPHOS"}, {"measurement": "ATP production through glycolysis", "setting": "[1]", "result": "glucose-cultured cells. ↓ATP"}, {"measurement": "total ATP production rate", "setting": "[1]", "result": "without changes; also recorded: maintained"}, {"measurement": "increase in respiration compared with GM28010", "setting": "[1]", "result": "did not increase respiration as much"}, {"measurement": "increase in respiration compared with GM28010", "setting": "[1]; listed as losmapimod", "result": "not as impressive as was observed in GM28010"}, {"measurement": "ATP-linked respiration", "setting": "[1]; glucose-cultured cells, listed as losmapimod", "result": "increased in ATP-linked respiration"}, {"measurement": "ATP production through glycolysis", "setting": "[1]; listed as losmapimod", "result": "decrease in ATP production through glycolysis"}, {"measurement": "total ATP production rate", "setting": "[1]; listed as losmapimod", "result": "maintained"}, {"measurement": "ATP-linked respiration", "setting": "[1]; medium not stated", "result": "Increased ATP-linked respiration"}, {"measurement": "ATP production through glycolysis", "setting": "[2]", "result": "conditions. ↓ ATP production"}, {"measurement": "increase in ATP-linked respiration", "setting": "[2]", "result": "12-15% increases in"}, {"measurement": "increase in maximal respiration", "setting": "[2]", "result": "12-15% increases in"}, {"measurement": "increase in ATP-linked respiration", "setting": "[2]; listed as losmapimod", "result": "12-15%"}, {"measurement": "increase in maximal respiration", "setting": "[2]; listed as losmapimod", "result": "12-15%"}, {"measurement": "respiration", "setting": "[2]; [4]", "result": "Increased respiration"}, {"measurement": "increase in respiration", "setting": "[2]; glucose and galactose culture conditions", "result": "up to 15%"}, {"measurement": "ATP production through glycolysis", "setting": "[2]; listed as losmapimod", "result": "decrease in ATP production through glycolysis"}]}, {"smiles": "CN(C)c1ccc2nc3ccc(=[N+](C)C)cc-3sc2c1", "note": "[Methylene Blue, methylene blue]", "values": [{"measurement": "ATP production rate through OXPHOS", "setting": "[3]; [5]", "result": "dose-dependent decrease in ATP production through OXPHOS"}, {"measurement": "respiration (oxygen consumption rate)", "setting": "[3]; [5]", "result": "decreased oxygen consumption rates"}, {"measurement": "total ATP production rates", "setting": "[3]; [5]", "result": "maintain ATP production rates"}, {"measurement": "ATP production through glycolysis", "setting": "[3]; 10 μM Ginsenoside Z R1", "result": "increase in ATP production through glycolysis"}]}, {"smiles": "CCCCCCCCCCCCCCCCOP(=O)([O-])OCC[N+](C)(C)C", "note": "[Miltefosine, miltefosine]", "values": [{"measurement": "ATP production through glycolysis", "setting": "[1]", "result": "both conditions; ↑ in ATP"}, {"measurement": "respiration", "setting": "[1]; [6]", "result": "did not result in major changes"}, {"measurement": "ATP production through glycolysis", "setting": "[1]; listed as miltefosine", "result": "increase in ATP production through glycolysis"}, {"measurement": "respiration", "setting": "[2]; [6]", "result": "did not result in major changes"}]}, {"smiles": "N#Cc1cccc(-c2c[nH]c3ncnc(N4CCOCC4)c23)c1", "note": "[PF-06447475]", "values": [{"measurement": "ATP production through glycolysis", "setting": "[1]", "result": "increase in ATP production glycolysis; also recorded: both conditions. ↑ ATP"}, {"measurement": "total ATP production rate", "setting": "[1]; 1 μM", "result": "increased the total ATP Production rate"}, {"measurement": "maximal respiration (maximal OCR)", "setting": "[1]; [4]", "result": "did not result increase maximal respiration"}, {"measurement": "ATP production through OXPHOS", "setting": "[2]", "result": "increase in ATP production; also recorded: both conditions. ↑ ATP"}, {"measurement": "ATP production through glycolysis", "setting": "[2]", "result": "increase in ATP production; also recorded: both conditions. ↑ ATP"}, {"measurement": "maximal respiration", "setting": "[2]; [4]", "result": "did not result increase maximal respiration; also recorded: did not result in an increase"}]}, {"smiles": "CC[C@@H]([C@H](C)O)n1ncn(-c2ccc(N3CCN(c4ccc(OC[C@@H]5CO[C@@](Cn6cncn6)(c6ccc(F)cc6F)C5)cc4)CC3)cc2)c1=O", "note": "[Posaconazole, posaconazole]", "values": [{"measurement": "total ATP production rate", "setting": "[1]", "result": "compensation with increased glycolysis"}, {"measurement": "respiration", "setting": "[1]; [4]", "result": "decreased respiration"}, {"measurement": "respiration", "setting": "[1]; [7]", "result": "↓ respiration, total ATP rate"}, {"measurement": "total ATP", "setting": "[1]", "result": "total ATP drops"}, {"measurement": "total ATP", "setting": "[1]; listed as Posacanazole", "result": "(10 uM) where ATP drops"}, {"measurement": "total ATP production rate", "setting": "[1]; listed as Posacanazole", "result": "compensated by glycolysis"}, {"measurement": "toxicity", "setting": "[2]; all concentrations", "result": "toxic at all conc"}, {"measurement": "respiration", "setting": "[2]; [4]", "result": "did not result in major changes"}, {"measurement": "respiration", "setting": "[2]; [7]", "result": "↓ respiration"}, {"measurement": "respiration", "setting": "[2]; higher concentrations", "result": "decreased respiration"}]}, {"smiles": "CCC[C@H](NC(=O)[C@@H]1[C@H]2CCC[C@H]2CN1C(=O)[C@@H](NC(=O)[C@@H](NC(=O)c1cnccn1)C1CCCCC1)C(C)(C)C)C(=O)C(=O)NC1CC1", "note": "[Telaprevir, telaprevir]", "values": [{"measurement": "ATP production through OXPHOS", "setting": "[1]", "result": "Dose-dependent increase"}, {"measurement": "total ATP production rate", "setting": "[1]", "result": "without changes"}, {"measurement": "respiration", "setting": "[1]; galactose conditions", "result": "did not result in major changes"}, {"measurement": "ATP production through OXPHOS", "setting": "[1]; glucose", "result": "dose-dependent increase"}, {"measurement": "ATP-linked respiration", "setting": "[1]; glucose-cultured cells", "result": "dose-dependent increase"}, {"measurement": "maximal respiration", "setting": "[1]; glucose-cultured cells", "result": "without any changes"}, {"measurement": "ATP-linked respiration", "setting": "[1]; [8]", "result": "dependent ↑ATP-Linked"}, {"measurement": "maximal respiration", "setting": "[1]; [8]", "result": "through OXPHOS, no change"}, {"measurement": "ATP production through OXPHOS", "setting": "[1]; glucose, listed as Telepravir", "result": "dependent ↑ATP-Linked"}, {"measurement": "respiration", "setting": "[2]; [4]", "result": "did not result in major changes"}]}]}
